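Dose response: 5 concentrations. Exposure: 48 h. Format: 96-well plates. Endpoint: linear interpolation; highest concentration if not reached. GI50 marks 50% less growth. TGI: concentration producing complete growth inhibition.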
Legend:
Assay in all cases: DTP human tumour cell line panel, 48 h
A549 NSCLC = system: A549 NSCLC
HT29 colon = system: HT29 colon
K-562 leukemia = system: K-562 leukemia
NCI-H23 lung = system: NCI-H23 lung
NCI-H460 lung = system: NCI-H460 lung
NCI/ADR-RES ovarian = system: NCI/ADR-RES ovarian
SF-268 CNS = system: SF-268 CNS
SK-OV-3 ovarian = system: SK-OV-3 ovarian
SN12C renal = system: SN12C renal
SNB-19 CNS = system: SNB-19 CNS

Row | SMILES | GI50 (A549 NSCLC) | TGI (A549 NSCLC) | GI50 (HT29 colon) | TGI (HT29 colon) | GI50 (K-562 leukemia) | TGI (K-562 leukemia) | GI50 (NCI-H23 lung) | TGI (NCI-H23 lung) | GI50 (NCI-H460 lung) | TGI (NCI-H460 lung) | GI50 (NCI/ADR-RES ovarian) | TGI (NCI/ADR-RES ovarian) | GI50 (SF-268 CNS) | TGI (SF-268 CNS) | GI50 (SK-OV-3 ovarian) | TGI (SK-OV-3 ovarian) | GI50 (SN12C renal) | TGI (SN12C renal) | GI50 (SNB-19 CNS) | TGI (SNB-19 CNS)
1 | COc1ccc(-c2nc(-c3nc4ccc(F)cc4[nH]3)c3ccccn23)cc1 | 3.96 µM | 28.4 µM | 7.13 µM | > 100 µM | 14 µM | > 100 µM | 18.7 µM | > 100 µM | 6.83 µM | > 100 µM | 6.5 µM | 36.5 µM | 7.2 µM | 57.8 µM | 10.3 µM | 37.3 µM | 13.3 µM | > 100 µM | 11.2 µM | 58.6 µM
2 | COc1ccc(C(O)c2cc3c(N)c(C(=O)Nc4cccc(Cl)c4)sc3nc2C)cc1 (stereo not given) | 1.45 µM | > 39.7 µM | 1.08 µM | > 33.4 µM | 1.03 µM | > 37.5 µM | 1.82 µM | > 50.1 µM | 1.06 µM | 5.53 µM | 1.11 µM | > 36.1 µM | 2.79 µM | > 46.2 µM | 1.78 µM | > 40.5 µM | 2.02 µM | > 72.7 µM | 1.47 µM | > 46.8 µM
3 | C1CC2CN(CCCN3CCOCC3)C(C1)O2 (stereo not given) |  | > 100 µM |  | > 100 µM |  | > 100 µM |  | > 100 µM |  | > 100 µM |  | > 100 µM |  | > 100 µM |  | > 100 µM |  | > 100 µM |  | > 100 µM
4 | CN(C)CCSS(=O)(=O)O |  | > 100 µM |  | > 100 µM |  | > 100 µM |  | > 100 µM |  | 34.7 µM |  | > 100 µM |  | > 100 µM |  | > 100 µM |  | > 100 µM |  | > 100 µM
5 | O=c1cc(N/N=C/c2ccc(F)cc2)c2cc(Cl)ccc2[nH]1 | 23.5 µM | > 100 µM | 23.1 µM | > 100 µM | 13.2 µM | 93.2 µM | 19.5 µM | 76.1 µM | 20.3 µM | > 100 µM | 23.5 µM | > 100 µM | 33.6 µM | > 100 µM | 20.1 µM | 83.4 µM | 23.8 µM | > 100 µM | 23.5 µM | > 100 µM
6 | Cc1c2cc(Cl)c3ccccc3c2c[n+]2ccccc12 | 8.54 µM | > 100 µM | 14 µM | 43.1 µM | 2.98 µM | 27.2 µM | 2.74 µM | 23.5 µM | 4.12 µM | 16.9 µM | > 100 µM | > 100 µM | 0.364 µM | 1.58 µM | 10.3 µM | 53.5 µM | 0.388 µM | 3.52 µM | 0.525 µM | 2.76 µM
7 | c1ccc2c(c1)SCCCSCCSCCCS2 |  | > 100 µM |  | > 100 µM |  | > 100 µM |  | > 100 µM |  | > 100 µM |  | > 100 µM |  | > 100 µM |  | > 100 µM |  | > 100 µM |  | > 100 µM
8 | Cc1c2c(c(C)c3c4c(oc13)CCCC4)C=NCC2 |  | 32.4 µM |  | 29 µM |  | 37.4 µM |  | 31.9 µM |  | 31.2 µM |  | 31.2 µM |  | 41.2 µM |  | 38.1 µM |  | 31.7 µM |  | 53.5 µM
9 | Cc1nc2ccc(NC(=O)CCNC(=O)CCCc3ccc(CC(C(=O)O)C(=O)O)cc3)cc2s1 | > 100 µM | > 100 µM | > 100 µM | > 100 µM | > 100 µM | > 100 µM | > 100 µM | > 100 µM | > 100 µM | > 100 µM | > 100 µM | > 100 µM | > 100 µM | > 100 µM | > 100 µM | > 100 µM | > 100 µM | > 100 µM | > 100 µM | > 100 µM
10 | Cn1cc(C2=C(c3cn(C)c4ccc(Cl)cc34)C(=O)NC2=O)c2ccccc21 | 2.12 µM | 16.8 µM | 1.23 µM | 8.38 µM | 1.35 µM | > 25 µM | 4.64 µM | 14.6 µM | 3.25 µM | 8.9 µM | 3.82 µM | > 23 µM | 5.51 µM | > 25 µM | 2.87 µM | > 21 µM | 3.87 µM | 15.7 µM | 8.33 µM | > 25 µM
11 | c1ccc(-c2nc(N3CCOCC3)c3c4c(sc3n2)CCCCCC4)nc1 | 3.57 µM | 15.9 µM | 6.05 µM | 22.7 µM | 3.47 µM | 23.7 µM | 5.99 µM | 26.5 µM | 3.68 µM | 16 µM | 0.836 µM | 18.2 µM | 8.82 µM | 22.6 µM | 9.25 µM | 22.5 µM | 5 µM | 29.4 µM | 8.36 µM | 21.6 µM
12 | CC(C)Cc1ccc(C(C)CC2=CCC(CN(C)C)C2=O)cc1 (stereo not given) |  | 35.2 µM |  | 17.5 µM |  | 4.04 µM |  | 28.2 µM |  | 48.9 µM |  | 43.7 µM |  | 30 µM |  | 31.7 µM |  | 20 µM |  | 29.5 µM
13 | COc1cc2c(cc1O)CC1c3c(cc(O)c(OC)c3-2)CCN1C (stereo not given) |  | > 100 µM |  | > 100 µM |  | > 100 µM |  | > 100 µM |  | > 100 µM |  | > 100 µM |  | > 100 µM |  | > 100 µM |  | > 100 µM |  | > 100 µM
